Results from ChEMBL document CHEMBL1143820, “Mutations in 16S rRNA and ribosomal protein S5 associated with high-level spectinomycin resistance in Pasteurella multocida” (2007).
Values after ≈ are worked out from the molar mass of the structure shown.

Tests used:
Type in all cases: functional
Pasteurella multocida [1] = assay: Antibacterial activity against Pasteurella multocida isolate 14 by CLSI M31-A2 method
Pasteurella multocida [2] = assay: Antibacterial activity against Pasteurella multocida isolate 8 with operon A,B,C,D,E 16S rRNA C1192G transversion mutation by CLSI M31-A2 method
Pasteurella multocida [3] = assay: Antibacterial activity against Pasteurella multocida isolate 17 by CLSI M31-A2 method
Pasteurella multocida [4] = assay: Antibacterial activity against Pasteurella multocida isolate 6 with operon A,B,C,D,E 16S rRNA C1192G transversion mutation by CLSI M31-A2 method
Pasteurella multocida [5] = assay: Antibacterial activity against Pasteurella multocida isolate 5 with operon A,B,C,D,E,F 16S rRNA C1192G transversion mutation by CLSI M31-A2 method
Pasteurella multocida [6] = assay: Antibacterial activity against Pasteurella multocida isolate 10 with operon B,C 16S rRNA C1192G transversion mutation and S5 protein 32-SF-33>32I mutation by CLSI M31-A2 method
Pasteurella multocida [7] = assay: Antibacterial activity against Pasteurella multocida isolate 2 with operon A,B,C,D,E,F 16S rRNA C1192G transversion mutation by CLSI M31-A2 method
Pasteurella multocida [8] = assay: Antibacterial activity against Pasteurella multocida isolate 15 by CLSI M31-A2 method
Pasteurella multocida [9] = assay: Antibacterial activity against Pasteurella multocida isolate 1 with operon A,B,C,D,E,F 16S rRNA C1192G transversion mutation by CLSI M31-A2 method
Pasteurella multocida [10] = assay: Antibacterial activity against Pasteurella multocida isolate 7 with operon A,B,C,D,E 16S rRNA C1192G transversion mutation by CLSI M31-A2 method
Pasteurella multocida [11] = assay: Antibacterial activity against Pasteurella multocida isolate 16 by CLSI M31-A2 method
Pasteurella multocida [12] = assay: Antibacterial activity against Pasteurella multocida isolate 13 with loss of 23K in S5 protein by CLSI M31-A2 method
Pasteurella multocida [13] = assay: Antibacterial activity against Pasteurella multocida isolate 12 with operon B,C 16S rRNA C1192G transversion mutation and S5 protein 32-SF-33>32I mutation by CLSI M31-A2 method
Pasteurella multocida [14] = assay: Antibacterial activity against Pasteurella multocida isolate 11 with operon B,C 16S rRNA C1192G transversion mutation and S5 protein 32-SF-33>32I mutation by CLSI M31-A2 method
Pasteurella multocida [15] = assay: Antibacterial activity against Pasteurella multocida isolate 9 with operon B,C 16S rRNA C1192G transversion mutation and S5 protein 32-SF-33>32I mutation by CLSI M31-A2 method
Pasteurella multocida [16] = assay: Antibacterial activity against Pasteurella multocida isolate 4 with operon A,B,C,D,E,F 16S rRNA C1192G transversion mutation by CLSI M31-A2 method
Pasteurella multocida [17] = assay: Antibacterial activity against Pasteurella multocida isolate 3 with operon A,B,C,D,E,F 16S rRNA C1192G transversion mutation by CLSI M31-A2 method

## CN[C@@H]1[C@H](O)[C@H](NC)[C@H]2O[C@@]3(O)C(=O)C[C@@H](C)O[C@H]3O[C@@H]2[C@H]1O [SPECTINOMYCIN]
Pasteurella multocida [1]
  MIC: 16 µg/mL (≈ 0.0481 mM)
Pasteurella multocida [2]
  MIC: 4100 µg/mL (≈ 12.3 mM)
Pasteurella multocida [3]
  MIC: 16 µg/mL (≈ 0.0481 mM)
Pasteurella multocida [4]
  MIC: 4100 µg/mL (≈ 12.3 mM)
Pasteurella multocida [5]
  MIC: > 8190 µg/mL
Pasteurella multocida [6]
  MIC: > 8190 µg/mL
Pasteurella multocida [7]
  MIC: > 8190 µg/mL
Pasteurella multocida [8]
  MIC: 16 µg/mL (≈ 0.0481 mM)
Pasteurella multocida [9]
  MIC: > 8190 µg/mL
Pasteurella multocida [10]
  MIC: 8190 µg/mL (≈ 24.6 mM)
Pasteurella multocida [11]
  MIC: 16 µg/mL (≈ 0.0481 mM)
Pasteurella multocida [12]
  MIC: 4100 µg/mL (≈ 12.3 mM)
Pasteurella multocida [13]
  MIC: > 8190 µg/mL
Pasteurella multocida [14]
  MIC: > 8190 µg/mL
Pasteurella multocida [15]
  MIC: 4100 µg/mL (≈ 12.3 mM)
Pasteurella multocida [16]
  MIC: > 8190 µg/mL
Pasteurella multocida [17]
  MIC: > 8190 µg/mL
